Assay results published in patent publication US20160106439A1, “PNEUMATIC TOURNIQUET” (BIONUMERIK PHARMACEUTICALS, INC., priority 2013, published 2016).
Entries after “also recorded” stand apart in the source; their conditions may differ.

Tests used:
[1] = system: bovine brain microtubule protein (α-/β-tubulin); experiment: Microtubule protein polymerization assay (OD350) and electron microscopy; type: biochemical
[2] = system: human breast, ovarian and lymphoma cancer cell lines; experiment: Interference with paclitaxel induced apoptosis (PARP cleavage, Bcl-2 phosphorylation, DNA laddering); type: cell-based
Text: Tavocept mediates the non-enzymatic xenobiotic modification of sulfur-containing amino acid residues (e.g., cysteine) on proteins. As an engineered, non-naturally occurring agent (i.e., xenobiotic), Tavocept is autocatalytic and requires no protein cofactor to cause the xenobiotic modification of cysteine, but appears to be specific for cysteine residues located within a particular structural context (i.e., not all cysteines in a protein are so modified). Tavocept-mediated, xenobiotic modification represents a novel mechanism of action for a cancer treating agent and can be compared to a degree with post-translational modifications of cysteine residues in proteins (see, Table 3, below).

[3] = target: T1, TrxR/Trx system (Homo sapiens, UniProt P10599); experiment: NADPH oxidation by TrxR and Trx; type: biochemical; conditions: increasing concentrations of the substance
T1 construct: 6xHis (N); purchased Sigma (Trx); American Diagnostica (bovine TrxR)
T1 sequence (P10599 1-105): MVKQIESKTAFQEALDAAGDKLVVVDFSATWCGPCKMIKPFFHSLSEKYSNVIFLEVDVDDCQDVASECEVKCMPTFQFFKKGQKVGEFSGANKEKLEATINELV

[4] = target: T2, FTase (Homo sapiens, UniProt P49354+P49356); experiment: FTase-mediated farnesylation of Dansyl-GCVLS peptide; type: biochemical
T2 construct: purchased Abcam
T2 sequence (P49356 whole entry, one chain of several): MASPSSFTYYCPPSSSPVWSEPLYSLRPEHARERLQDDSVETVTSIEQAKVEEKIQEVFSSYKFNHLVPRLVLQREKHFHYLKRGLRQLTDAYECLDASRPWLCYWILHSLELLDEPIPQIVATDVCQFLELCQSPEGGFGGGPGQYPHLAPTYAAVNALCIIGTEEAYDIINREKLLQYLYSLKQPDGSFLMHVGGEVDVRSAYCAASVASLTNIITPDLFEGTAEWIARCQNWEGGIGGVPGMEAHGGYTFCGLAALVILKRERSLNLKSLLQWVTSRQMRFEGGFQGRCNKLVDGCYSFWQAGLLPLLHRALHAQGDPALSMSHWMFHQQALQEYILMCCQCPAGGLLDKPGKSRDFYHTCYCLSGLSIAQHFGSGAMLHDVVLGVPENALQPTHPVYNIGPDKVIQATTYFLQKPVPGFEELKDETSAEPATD

[5] = target: T3, human glutaredoxin (Grx1) (Homo sapiens, UniProt P35754); experiment: X-ray crystallography of Grx1 with Tavocept-derived mesna adducts; type: binding; conditions: 40 mM Tavocept
T3 construct: 6xHis (TEV-cleavable) (N, cleaved yes); made in house; host or cells: E. coli BL21 (RIPL)
T3 sequence (P35754 whole entry): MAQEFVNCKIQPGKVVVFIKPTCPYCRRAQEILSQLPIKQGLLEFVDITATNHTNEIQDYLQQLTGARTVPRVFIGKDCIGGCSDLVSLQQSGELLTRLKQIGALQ
Text: Diffraction data were collected at the Advanced Light Source (ALS) (Berkeley, Calif.). […] Data was processed using the program package MosFlm as part of the ccp4 program package.
Data was indexed, integrated, scaled and merged using the program Mosflm. […] The solution was consistent with one molecule in the crystal asymmetric unit. […] The structure solution is supported by contiguous electron density for the entire chain trace of each molecule, landmark side chain density features matching the amino acid sequence including cysteines, absence of phi-psi violations and final R/Rfree values in the normal range. […] Residues Gln39 and Glu55 have missing side-chain atoms in the final structures (side chain atoms CD, CG, OE1, NE2 and CD, OE1, OE2, respectively).

[6] = target: T4, Anaplastic Lymphoma Kinase (ALK) (Homo sapiens, UniProt Q9UM73); experiment: ALK kinase activity (summary Table 27); type: biochemical
T4 construct: illustrates the kinase domain of ALK (residues 1058-1623) which was used in these experiments; purchased Millipore; host or cells: Sf21 insect cells (baculovirus)
T4 sequence (Q9UM73 1058-1620 limits assumed): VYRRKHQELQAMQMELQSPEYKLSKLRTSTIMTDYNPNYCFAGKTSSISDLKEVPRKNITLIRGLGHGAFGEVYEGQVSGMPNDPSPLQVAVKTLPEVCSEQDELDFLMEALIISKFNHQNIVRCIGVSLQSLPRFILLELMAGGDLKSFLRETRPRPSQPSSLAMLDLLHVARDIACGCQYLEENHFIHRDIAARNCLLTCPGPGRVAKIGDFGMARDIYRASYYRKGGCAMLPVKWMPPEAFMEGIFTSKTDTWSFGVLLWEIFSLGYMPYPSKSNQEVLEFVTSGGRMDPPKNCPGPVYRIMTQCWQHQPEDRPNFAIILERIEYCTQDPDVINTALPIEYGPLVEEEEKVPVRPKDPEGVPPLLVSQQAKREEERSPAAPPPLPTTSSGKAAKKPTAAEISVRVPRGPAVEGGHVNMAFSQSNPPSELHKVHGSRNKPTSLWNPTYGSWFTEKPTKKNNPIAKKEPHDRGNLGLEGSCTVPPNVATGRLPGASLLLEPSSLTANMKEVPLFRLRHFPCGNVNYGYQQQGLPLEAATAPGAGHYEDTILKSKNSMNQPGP

[7] = target: γ-Glutamyltranspeptidase (Homo sapiens, UniProt P19440); experiment: γ-glutamyltranspeptidase enzyme activity (summary Table 27); type: biochemical
Sequence of γ-Glutamyltranspeptidase (P19440 whole entry): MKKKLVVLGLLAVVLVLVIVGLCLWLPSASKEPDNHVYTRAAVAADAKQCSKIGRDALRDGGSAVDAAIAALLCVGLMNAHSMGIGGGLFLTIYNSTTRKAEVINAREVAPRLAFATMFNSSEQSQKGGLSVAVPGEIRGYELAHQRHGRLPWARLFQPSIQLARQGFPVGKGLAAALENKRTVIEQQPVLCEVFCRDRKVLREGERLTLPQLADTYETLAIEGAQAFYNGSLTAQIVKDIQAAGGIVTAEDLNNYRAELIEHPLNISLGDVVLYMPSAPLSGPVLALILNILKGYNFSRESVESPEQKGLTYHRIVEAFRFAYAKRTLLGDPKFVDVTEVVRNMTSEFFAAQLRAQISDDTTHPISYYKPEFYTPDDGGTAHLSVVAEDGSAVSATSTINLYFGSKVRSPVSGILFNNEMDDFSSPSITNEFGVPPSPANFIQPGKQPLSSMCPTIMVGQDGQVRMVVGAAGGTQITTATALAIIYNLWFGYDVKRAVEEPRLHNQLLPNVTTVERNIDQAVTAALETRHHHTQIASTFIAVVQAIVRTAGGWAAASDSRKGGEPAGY

[8] = target: human peroxiredoxin 4 (PRX4) (Homo sapiens, UniProt Q13162); experiment: Tavocept-derived mesna adducts on Prx 4 (MS, X-ray crystallography)
Sequence of human peroxiredoxin 4 (PRX4) (Q13162 79-271 limits assumed): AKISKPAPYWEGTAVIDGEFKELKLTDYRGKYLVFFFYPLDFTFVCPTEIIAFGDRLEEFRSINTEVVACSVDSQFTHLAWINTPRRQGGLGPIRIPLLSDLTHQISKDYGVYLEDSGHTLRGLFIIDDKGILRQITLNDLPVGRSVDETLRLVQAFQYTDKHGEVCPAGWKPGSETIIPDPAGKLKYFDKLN

[9] = target: T5, Recombinant human Trx (Homo sapiens, UniProt P10599); type: biochemical; design: 6xHis (N); purchased Sigma (Trx); American Diagnostica (bovine TrxR); conditions: Reaction B; disulfide 0.5 mM
T5 sequence (P10599 1-105): T1 sequence (P10599 1-105)
Procedure: See, Luthman M and Holmgren A. Rat liver thioredoxin and thioredoxin reductase: purification and characterization. […] All disulfides were added to reactions as 10x solutions in buffer. The total volume of each reaction was 0.1 mL. Reactions were initiated by the addition of TrxR and were incubated at 25° C. for 40 minutes. Reactions were analyzed using a Molecular Devices SpectraMax Plus UV/vis plate reader and the activity was calculated using a 4 minute linear portion of each assay.

SMILES: O=S(=O)([O-])CCSSCCS(=O)(=O)[O-].[Na+].[Na+] [Tavocept, disodium 2,2′-dithio-bis-ethane sulfonate]
- effect on paclitaxel-induced hyperpolymerization of MTP [1]: normalizes
- inhibition of paclitaxel promoted microtubule protein polymerization ([1]; 12 mM Tavocept, paclitaxel 10 μM): approximately 50%
- Tavocept concentration giving final polymerization equal to GTP control ([1]; MTP exposed to paclitaxel): ≥ 6 mM
- Tavocept concentration inhibiting paclitaxel (10 μM) promoted hyperpolymerization ([1]; paclitaxel 10 μM): > 1 mM
- Tavocept concentration giving net polymerization equivalent to GTP/MgCl2 only control ([1]; paclitaxel/GTP/MgCl2 10 μM/1 mM/1 mM): 6 to 8 mM
- microtubules visible on electron microscopy grids ([1]; preincubated 20 minutes on ice, with and without paclitaxel, qualitative): reduction in the abundance of microtubules
- effect on GTP-catalyzed microtubule protein polymerization ([1]; preincubated with microtubule protein on ice 20 minutes, 37° C.): dose-dependent inhibitory effect; also recorded: inhibit GTP-catalyzed polymerization; also recorded: concentration dependent manner
- interference with paclitaxel induced apoptosis [2]: does not interfere
- NADPH oxidation by TrxR and Trx [3]: increases
- effect on FTase activity [4]: Inhibition
- Tavocept-derived mesna adduct sites on Grx [5]: observed on Cys7 and Cys82
- Effect on ALK kinase activity [6]: resulting in inhibition of ALK kinase
- Effect on γ-glutamyltranspeptidase enzyme activity [7]: heteroconjugates can inhibit γ-glutamyl-
- number of Tavocept-derived mesna moieties on Prx 4 ([8]; Mass Spectroscopy after reaction with Tavocept): 2
- Prx 4 cysteine bound by Tavocept-derived mesna moiety ([8]; X-ray, 2.3 Å, 40 mM Tavocept): Cys124
- Reduction of disulfide by Trx in the presence of TrxR and NADPH [9]: readily reduced
